Assays:
HOC1A cells = assay: 51Cr release assay, specific CTLs against HOC1A cells; format: cell-based; conditions: for killing of HOC1A cells by peptide-CTLs: CTLs stimulated three periods, 4 hours, effector/target 40:1 to 5:1; for killing effect on HOC1A cells, comparison of antigens: T cells stimulated with single peptide 30 μg/ml, or VH CDR3 15 μg/ml plus VL CDR3 15 μg/ml, or 6B11 40 μg/ml; for killing of HOC1A cells after MHC class I molecule blocking: anti-human MHC class I antibodies 1:20 dilution
Excerpt: (§1) The freeze-stored autologous lymphocytes were stimulated by DCs loaded with the peptides and KLH, to obtain peptide-specific CTLs (peptide-CTLs). One period consists of 7 days. On Day 3 of every period, 10 U/ml rh IL-2 was supplemented. Finally, peptide-CTLs were obtained after a 3-period stimulation.
(§2) 6B11-CTLs stimulated for one period were harvested and used as reacting cells in cell proliferation assay, ELISA cytokine assay and IFN-γ ELISPOT assay. 6B11-CTLs and peptide-CTLs stimulated for 3 periods were harvested for use in ^51Cr release assay as effector cells.
(§3) 6B11-CTLs and peptide-CTLs stimulated for three periods were used as effector cells. T2 cells, HOC1A cells and HLE cells loaded with corresponding peptides were used as target cells. Standard ^51Cr release assay was carried out for 4 hours. Target cells (1×10^6 cells) were placed into 0.5 ml RPMI 1640 culture medium (containing 5% fetal bovine serum). 100 μCi Na2^51CrO4 was added. The labeling reaction was allowed to continue overnight at 37° C. Then the cells were washed by cold RPMI 1640 culture medium (containing 5% fetal bovine serum) for three times to terminate the labeling reaction. Target cells (5×10^3 cells) were placed into 100 μl culture medium and then mixed with an equal volume of effector cells in a 96-well plate. The ratio of effector/target was set as 40:1, 20:1, 10:1 and 5:1. Spontaneous release wells contained target cells and the culture medium, while the maximal release wells contained target cells and corresponding culture medium containing 1% Triton X-100. The plates were gently spun using a plate centrifuge for 2 minutes and then co-incubated at 37° C. under 5% CO2 for 4 hours. The plates were gently spun again. 100 μl of supernatant per well was transferred to a counting tube and labeled as appropriate. The cpm values were determined by a γ counter. All assays were performed in duplicate. The ratio of cpm values of the spontaneous release well to the maximal release well was <20%. Killing ratio (%)=[(mean cpm value of the experimental wells−mean cpm value of the spontaneous release wells)/(mean cpm value of the maximal release wells−mean cpm value of the spontaneous release wells)]×100
(§4) For further analyzing the above-mentioned killing effect, the target cells were blocked by applying anti-human MHC class I antibodies, for evaluating the effect of CTL epitope peptides. Firstly, the optimal concentration of MHC class I antibodies was determined to be 1:20 dilution (FIG. 9). […] The killing effect were not disturbed by MHC class I antibodies, i.e., unrelated to the effect of CD8 T cells. […] Its killing effect was disturbed by MHC class I antibodies, which was mainly mediated by CD8 T cells (FIG. 10). […] The former was unrelated to CD8 T cells whereas the latter was mediated by CD8 T cells.
For investigating the specificity and effectiveness of the killing effect of T-cell epitope peptides, the following experiments were carried out. T cells were stimulated by VH CDR3 peptide (30 μg/ml, final concentration), VL CDR 3 peptide (30 μg/ml), VH CDR3 peptide (15 μg/ml) and VL CDR3 peptide (15 μg/ml) as well as anti-idiotype antibody 6B11 (40 μg/ml), resulting in corresponding specific CTLs, which were used as effector cells. HOC1A cells were used as target cells for performing ^51Cr release assay, in order to compare the effectiveness of each antigen in stimulating immune responses. […] The killing effect of the specific CTLs obtained by stimulating with the combination of VH CDR3 peptide and VL CDR3 peptide was even stronger, which indicated a synergic effect between them. The killing effect of them was also stronger than that of 6B11-CTLs (FIG. 12). […] Their effects were more accurate than that of anti-idiotype antibody 6B11.

[1] = system: T2 cells loaded with corresponding peptides; assay: 51Cr release assay, peptide-CTLs against T2 cells loaded with peptide; format: cell-based; conditions: for killing of T2 cells loaded with the peptide by peptide-CTLs: CTLs stimulated three periods, 4 hours, effector/target 40:1 to 5:1; for killing of peptide-stimulated T2 cells after MHC class I molecule blocking: anti-human MHC class I antibodies 1:20 dilution
Excerpt: as §1, §2, §3, §4

K562 cells = assay: 51Cr release assay, specific CTLs against K562 cells; format: cell-based; conditions: non-specific killing
[2] = system: CD4 T cells derived from 6B11-CTLs; assay: Intracellular cytokines of CD4 T cells by flow cytometry; format: cell-based, human; conditions: 6B11-CTLs co-incubated with peptide-loaded DCs
Protocol: The anti-idiotype antibody 6B11-CTLs were co-incubated respectively with DCs loading VH CDR3 peptides and DCs without loading. The production of intracellular cytokines in CD4 T cells derived from the anti-idiotype antibody 6B11-CTLs was detected by flow cytometry.

HLA-A2 = HLA-A2 (Homo sapiens, UniProt P04439, D140Y/D185E/D98H/E176V/E277Q/G131W/G231S/I119V/I121R/I166T/I218V/L300P/L318F/N151K/N90K/P208A/P217A/Q86G/Q94H/R138H/R169H/T345S); assay: T2 cell binding assay (HLA class I expression on T2 cells, confocal microscopy); format: cell-based; on T2 binding: key: +++: high binding capacity; ++: moderate binding capacity; +: low binding capacity
Protocol: The peptides obtained by […] method and the VH CDR1 and VL CDR2 region peptides were subject to T2 cell binding assay. T2 cells were co-incubated with each peptides in different concentrations (0.3 μg/ml, 3 μg/ml and 30 μg/ml) for 24 hours and then co-incubated with anti-human MHC class I antibodies. The expression profile of HLA class I molecules on the surface of T2 cells was analyzed by confocal microscopy. […] They were synthesized together with the CDR peptides of the anti-idiotype antibody for screening CTL epitope peptides.

Row | Sequence | killing of HOC1A cells by peptide-CTLs (HOC1A cells) | killing effect on HOC1A cells, comparison of antigens (HOC1A cells) | killing of HOC1A cells after MHC class I molecule blocking (HOC1A cells) | killing of T2 cells loaded with the peptide by peptide-CTLs [1] | killing of peptide-stimulated T2 cells after MHC class I molecule blocking [1] | killing of K562 cells by specific CTLs (K562 cells) | IFN-γ secretion by CD4 T cells [2] | IL-4 level in CD4 T cells [2] | binding capacity in T2 cell binding assay (in words) (HLA-A2; T2 cells co-incubated with peptide 24 hours) | T2 binding (HLA-A2; T2 cells co-incubated with peptide (0.3, 3, 30 μg/ml) 24 hours, HLA class I surface expression)
1 | IALITTKIAWYFDV (VH CDR3 region peptide) [VH CDR3 peptide] | could kill | could kill | could still kill | could kill | could still kill | could kill | high level | low level | – | –
2 | SQSTHFPYT (VL CDR3 region peptide) | could also kill | could kill | significantly inhibited | could also kill | significantly inhibited | could not kill | – | – | moderate binding capacity | ++
